Results on five substances are retold here after paper PMC2951365, “Structural Transformation of the Tandem Ubiquitin-Interacting Motifs in Ataxin-3 and Their Cooperative Interactions with Ubiquitin Chains” (PLoS ONE, 2010).

Assay [1] has as its target T1, Ub (Homo sapiens, UniProt P0CG48).
T1 construct: gene UBC; 15N-labeled Ub; cDNA encoding Ub cloned into pET-3a, expressed in E. coli
Particulars: cited from earlier work. An excerpt: (§1) There are about 20∼50 residues inserted in between two UIMs of S5a and Vps27, but the linker region between the two UIMs of AT3 is very short. These adjoining UIM motifs in AT3 raise a possible cooperativity for binding with Ub. Our structure determination and titration experiments reveal that the individual UIMs of AT3 can bind Ub respectively but with lower affinities. […] It seems that the cooperative interaction of AT3-UIM12 with diUb or polyUb is more remarkable than that with monoUb (Supplemental Fig. S7). […] Therefore, the altered affinities of AT3-UIM12 for monoUb or diUb may result from structural transformation of the linker region. The backbone dynamics provides further evidence for the conformational change in the linker region, which possibly allows cooperative interaction with Ub.

Assay [2] has as its target Ub. The settings on record: cited from earlier work.
From the text: as §1

In assay [3] the target is T1, Ub. Particulars: read-out: K D,app.
Procedure: ^15N-Ub at a molar concentration of ∼0.2 mM was titrated with increasing amount of UIM peptides or its mutants. A series of ^1H-^15N HSQC spectra of Ub were obtained and the chemical shift changes were measured for each molar ratio. […] The combined average chemical shift changes (Δδave) were calculated as Δδave = [(0.2*ΔδN)^ 2 + (ΔδHN)^ 2]^1/2, where ΔδHN and ΔδN are the chemical shift changes in the ^1H and ^15N dimensions, respectively. […] The dissociation constant (K D) for the UIM-Ub binding was obtained by fitting the titration curves [61].
^15N- or ^15N/^13C-labeled samples (∼1 mM) were dissolved in a PBS buffer (20 mM phosphate, 100 mM NaCl, pH 6.5) containing 8% or 100% D2O and 0.02% (w/v) NaN3. […] All the NMR experiments were performed at 25°C on a Varian UNITY INOVA 600 MHz spectrometer equipped with three RF channels and a triple-resonance pulsed-field gradient probe.

Read-outs that look alike come from different tables or passages of the source.

“S5a UIM1 (210–230 in alignment); construct not told”: on Ub [1], the Kd is about 350 µM. In the case of “S5a UIM2 (281–301 in alignment); construct not told”, the Kd on Ub [1] is 73 µM. For the substance “Vps27p UIM1 (257–277 in alignment); construct not told”, at Ub [2], the Kd was 277 µM.

Regarding “Vps27p UIM2 (300–320 in alignment); construct not told”, the Kd on Ub [2] is 117 µM. For the substance “ataxin-3 residues 335–354; GB1 fusion [AT3-UIM3]”, on Ub [3], the Kd was over 3000 µM.
